The structures appear in SMILES notation.

The nature of this data set: Dissolution performance test: solubility in 3-ethyl-3-hydroxymethyl oxetane monomer. In kind it is physicochemical. Particulars: maximum number of grams dissolved in 100 g 3-ethyl-3-hydroxymethyl oxetane monomer at 20° C. Here is the method: The solubility in 3-ethyl-3-hydroxymethyl oxetane monomer was tested for Compound A-1 to A-38 and C-1 to C-25, and comparative compounds B-1 and B-2 as well as D-1 and D-2 in the present invention, calculated based on the maximum number of grams dissolved in 100 g solvent at 20° C.

`Cc1ccc([SH](c2ccc(C)c(F)c2)c2ccc3c(c2)oc2cc([SH](c4ccc(C)c(F)c4)c4ccc(C)c(F)c4)ccc23)cc1F` [Compound C-23]: where the note is “Table 4”, the Solubility was found to be 23.6 g.
Compound `Cc1ccc([S+](c2ccc(C)c(F)c2)c2ccc3oc4ccccc4c3c2)cc1F` [Compound A-24] displayed a Solubility (Table 3) of 23.1 g.
Still for that read-out and setting: under `Cc1ccc([S+](c2ccc(Sc3ccccc3)cc2)c2ccc(C)c([N+](=O)[O-])c2)cc1[N+](=O)[O-]` [Compound A-27] stands 22.3 g.
In the case of `CCc1ccc([S+](c2ccc(Sc3ccc([S+](c4ccc(CC)c(C(F)(F)F)c4)c4ccc(CC)c(C(F)(F)F)c4)cc3)cc2)c2ccc(CC)c(C(F)(F)F)c2)cc1C(F)(F)F` [Compound C-6], under “Table 4”, the Solubility was 25.3 g.
As for `Cc1ccc([S+](c2ccc(Sc3ccccc3)cc2)c2ccc(C)c(F)c2)cc1F` [Compound A-12], the Solubility (Table 3) is 24.5 g.
Compound `Cc1ccc([S+](c2ccccc2)c2ccc(Sc3ccc([S+](c4ccccc4)c4ccc(C)cc4)cc3)cc2)cc1` [Compound D-2, reference compound] showed a Solubility (Table 4) of 19.3 g.
On to `CCCCC1(CCCC)c2cc([S+](c3ccc(C)c(F)c3)c3ccc(C)c(F)c3)ccc2-c2ccc([S+](c3ccc(C)c(F)c3)c3ccc(C)c(F)c3)cc21` [Compound C-22], for which the Solubility (Table 4) is given as 24.5 g.
Compound `Cc1ccc([SH](c2ccc(Sc3ccc(C(=O)c4ccccc4)cc3)cc2)c2ccc(C)c(F)c2)cc1F` [Compound A-30] had a Solubility (Table 3) of 27.8 g.
`Fc1ccc([S+](c2ccccc2)c2ccccc2)cc1F` [Compound A-5] yielded a Solubility (Table 3) of 19.1 g.
As to `Cc1ccc([S+](c2ccc(C)c(F)c2)c2ccc3c(c2)Cc2cc([S+](c4ccc(C)c(F)c4)c4ccc(C)c(F)c4)ccc2-3)cc1F` [Compound C-21], the Solubility (Table 4) came to 23.4 g.
`Cc1ccc([SH](c2ccc(C)c(F)c2)c2ccc(C)c(F)c2)cc1F` [Compound A-10]: under “Table 3”, the Solubility was found to be 23.8 g.
Turning to `Cc1ccc([S+](c2ccc(-c3ccc([S+](c4ccc(C)c(F)c4)c4ccc(C)c(F)c4)cc3)cc2)c2ccc(C)c(F)c2)cc1F` [Compound C-10], for the setting “Table 4”, the Solubility worked out at 21.4 g.
With `COc1ccc([S+](c2ccc(Sc3ccccc3)cc2)c2ccc(OC)c(F)c2)cc1F` [Compound A-35], the Solubility (Table 3) turned out to be 24.8 g.
Same read-out and setting: under `CCc1ccc([S+](c2ccc(OC)cc2)c2ccc(CC)c(F)c2)cc1F` [Compound A-28] stands 26.4 g.
For the compound `Cc1ccc([S+](c2ccccc2)c2ccc(Sc3ccc([S+](c4ccccc4)c4ccc(C)c(C(F)(F)F)c4)cc3)cc2)cc1C(F)(F)F` (centres unmarked) [Compound C-20], the Solubility (Table 4) worked out at 22.1 g.
The same measure, in the same setting: under `Cc1ccc([S+](c2ccc(-c3ccc([S+](c4ccc(C)c(C#N)c4)c4ccc(C)c(C#N)c4)cc3)cc2)c2ccc(C)c(C#N)c2)cc1C#N` [Compound C-11] stands 21.0 g.
`Cc1ccc([S+](c2ccc(Sc3ccccc3)cc2)c2ccc(C)c(C(=O)Cl)c2)cc1C(=O)Cl` [Compound A-19] gave a Solubility (Table 3) of 24.3 g.
For `CCn1c2cc([SH](c3ccc(C)c(C(F)(F)F)c3)c3ccc(C)c(C(F)(F)F)c3)ccc2c2ccc([SH](c3ccc(C)c(C(F)(F)F)c3)c3ccc(C)c(C(F)(F)F)c3)cc21` [Compound C-25], the Solubility (Table 4) was found to be 22.8 g.
In turn, `Cc1ccc([S+](c2ccc(C)c(F)c2)c2ccc(C)c(F)c2)cc1` [Compound A-3] came in with a Solubility (Table 3) of 22.5 g.
As for `Cc1ccc([S+](c2ccc(Sc3ccc([S+](c4ccc(C)c(C#N)c4)c4ccc(C)c(C#N)c4)cc3C)c(C)c2)c2ccc(C)c(C#N)c2)cc1C#N` [Compound C-13], the Solubility (Table 4) amounted to 24.9 g.
The compound `Cc1ccc([S+](c2ccccc2)c2ccccc2)cc1` [Compound B-2, reference compound] gave a Solubility (Table 3) of 20.6 g.
The same measure, in the same setting: under `Fc1cc([S+](c2ccc(Sc3ccccc3)cc2)c2ccc(Cc3ccccc3)c(F)c2)ccc1Cc1ccccc1` [Compound A-36] stands 23.2 g; under `Cc1ccc([S+](c2ccc(Cc3ccccc3)cc2)c2ccc(C)c(F)c2)cc1F` [Compound A-14], 23.5 g.

The record behind these values is patent publication US11746085B2, “Triphenylsulfonium salt compound, and uses thereof” (Changzhou Tronly Advanced Electronic Materials Co., Ltd., priority 2018, dated 2023).
